Source: patent US20240148425A1, “COSMETIC COMPOSITION INTENDED FOR THE TREATMENT OF SKIN HYPERPIGMENTATION AND TREATMENT METHOD USING SAID COMPOSITION” (priority 2021, published 2024)

Experiments:
[1] = tested on: IL-1β marker in keratinocytes; experiment: IL-1β irritation marker in keratinocytes after cryogenic gas sequences; type: cell-based; conditions: +14° C. with 4 successive oscillations vs subzero dose (EC16, −16° C.), same level of keratinocyte viability
From the text: Finally, on the other constituent cells of the epidermis (keratinocytes), experiments have shown that oscillations within an above-zero temperature range caused a lesser effect on certain irritation markers compared to the application of a single cryogenic gas within a subzero temperature range while causing an identical reduction in the viability of the keratinocytes (see FIG. 3). […] Likewise, since the irritation is directly related to the mortality induced by keratinocytes, it could have been thought that for an identical reduction in viability, the irritation would be identical.
FIG. 3 is a graph showing the variation over time of the (IL-1β) marker of the irritation for keratinocytes subjected to two sequences making it possible to achieve the same level of viability, a sequence (EC16) located in a subzero temperature range (−16° C.) and the other sequence (EC14) in an above-zero temperature range (+14° C.).
The development of the invention has given rise to numerous experiments relating to the optimization of atomization sequences. These sequences were tested on cell culture models in order to determine, in particular, their incidence on the cell viability of the melanocytes and keratinocytes. The main markers of irritation were also measured.

[2] = tested on: keratinocytes; experiment: viability of keratinocytes by protein assay; type: cell-based; conditions: certain temperatures, especially +05° C.; patent attributes it to quiescence bias
From the text: Other tests conducted within the scope of the development of the invention have shown that an experiment bias existed in the measurement of the viability of the keratinocytes by protein assay.

[3] = tested on: melanocytes
Description: By way of example, when the viability of the melanocytes is compared between the application of a dose of atomized cryogenic gas making it possible to reach a target temperature of −10° C. (sequence referenced EC-10) on the epidermis from its normal starting temperature (34° C.) in an environment at room temperature (23° C.), and the application of a dose making it possible to reach a temperature of 0° C.
Therefore, experiments (cell cultures-in vitro) were conducted in the context of the invention to determine the effects of different temperatures (+10, +5, 0, −5, −10, −15 and 16° C.) on the mortality of the melanocytes. […] A control group of cells was tested at +23° C. After 24 h of treatment, the cell mortality was quantified by assaying the expression of the proteins (see FIG. 1).

[4] = tested on: actinic lentigines on the back of hands; conditions: cooling cycle of 3 to 5 seconds; biopsies 3 weeks after the treatment; cited from earlier work
[5] = tested on: skin pigmentation; conditions: brief 5-second cooling by atomizing liquid nitrogen at −196° C., margin 1 to 5 mm beyond the wound; cited from earlier work

SMILES	irritant effect (IL-1β marker) [1]	viability of the keratinocytes by protein assay [2]	decrease of viability of the melanocytes relative to the control group [3] [%]	reduction of the viability of the melanocytes [3]	mortality rate of melanocytes versus control group ([3]; EC+10 sequence (+10° C.), control at +23° C.)	viability of the melanocytes, sequence EC-10 (−10° C.) compared with EC00 (0° C.) ([3]; EC-10 vs EC00, start 34° C., room temperature 23° C.)	skin pigmentation in biopsies [4]	pigment change of skin [5]
CC(F)F [cryogenic gas, 1,1-difluoroethane]	less than that observed with a dose making it possible to achieve subzero temperatures	a reduction in the viability of the keratinocytes	40	about 40%	very different from that obtained for the control group	remains the same		
N#N [liquid nitrogen]							reduces skin pigmentation	hypopigmentation persists
